From US7897582B2, “Oligonucleotide compositions and methods for the modulation of the expression of B7 protein” (Isis Pharmaceuticals, Inc., priority 2003, dated 2011)
Strand notation (5' to 3'): a small letter for the sugar, then the base; units joined by * are phosphorothioate-linked, units joined directly phosphodiester-linked; [ ] holds rarer units or linkages, { } end groups; capitals alone tell only the bases. e = 2'-O-(2-methoxyethyl) (MOE); [5mC] = 5-methylcytosine; d = 2'-deoxy (DNA)

Columns and labels:
human B7-2 = assay: Cell surface expression of B7-2 in transfected COS-7 cells by flow cytometry; assay type: cell-based; parameters: % Control Protein: concentration or dose not given beside the values; conditions: for B7-2 expression relative to untreated cells / inhibitory activity on B7-2 cell surface expression: 200 nM; for B7-2 expression relative to untreated cells: protein expression assay, ISIS 10996 and 2′-O-methyl derivatives; for activity in the B7-2 protein expression assay: ISIS 10373 deletion derivatives, FIG. 4; for % Control Protein: hB7-2 protein, flow cytometry, Table 5; for inhibitory activity on B7-2 cell surface expression: FIG. 3
Description: A T-175 flask was seeded at 75% confluency with COS-7 cells (ATCC accession No. CRL 1651). The plasmid pcB7-1 was introduced into cells by standard calcium phosphate transfection. Following a 4 hour transfection, the cells were trypsinized and seeded in 12-well dishes at 80% confluency. The cells were allowed to adhere to the plastic for 1 hour and were then washed with phosphate-buffered saline (PBS). OptiMEM™ (GIBCO-BRL, Gaithersburg, Md.) medium was added along with 15 μg/mL of Lipofectin™ (GIBCO-BRL, Gaithersburg, Md.) and oligonucleotide at the indicated concentrations. After four additional hours, the cells were washed with phosphate buffered saline (PBS) and incubated with fresh oligonucleotide at the same concentration in DMEM (Dulbecco et al., Virol., 1959, 8, 396; Smith et al., Virol., 1960, 12, 185) with 10% fetal calf sera (FCS).
In order to monitor the effects of oligonucleotides on cell surface expression of B7-1, treated COS-7 cells were harvested by brief trypsinization 24-48 hours after oligonucleotide treatment. The cells were washed with PBS, then resuspended in 100 μL of staining buffer (PBS, 0.2% BSA, 0.1% azide) with 5 μL conjugated anti-B7-1-antibody (i.e., anti-hCD80-FITC, Ancell, Bayport, Minn.; FITC: fluorescein isothiocyanate). The cells were stained for 30 minutes at 4° C., washed with PBS, resuspended in 300 μL containing 0.5% paraformaldehyde. Cells were harvested and the fluorescence profiles were determined using a flow cytometer.
In an initial screen, the ability of hB7-2 oligonucleotides to inhibit B7-2 expression was evaluated by measuring the cell surface expression of B7-2 in transfected COS-7 cells by flow cytometry. The methods used were similar to those given in Example 2, with the exceptions that (1) COS-7 cells were transfected with the plasmids pbcB7-2 or BBG-58, a human ICAM-1 (CD54) expression vector (R&D Systems, Minneapolis, Minn.) introduced into cells by standard calcium phosphate transfection, (2) the oligonucleotides used were those described in Table 2, and (3) a conjugated anti-B7-2 antibody (i.e., anti-hCD86-FITC or anti-CD86-PE, PharMingen, San Diego, Calif.; PE: phycoerythrin) was used during flow cytometry.
B7 antisense oligonucleotides were tested for their effect on cell surface expression of both B7-1 and B7-2. Cell surface expression was measured as described in Example 1. Experiments were done for both human B7 and mouse B7.
The oligonucleotides were screened as described in Example 2 except that the concentration of oligonucleotide was varied as shown in Table 19.

hB7-2 mRNA = assay: Ribonuclease protection assay of hB7-2 mRNA in transfected COS-7 cells; assay type: cell-based, human; parameters: % Control RNA Expression: concentration or dose not given beside the values; conditions: for % Control RNA Expression: hB7-2 mRNA, Table 5
Description: For ribonuclease protection assays, cells were harvested 18 hours after completion of oligonucleotide treatment using a Totally RNA™ kit (Ambion, Austin, Tex.). The probes for the assay were generated from plasmids pcB7-2 (linearized by digestion with Bgl II) and pTRI-b-actin (Ambion Inc., Austin, Tex.). In vitro transcription of the linearized plasmid from the SP6 promoter was performed in the presence of α-^32P-UTP (800 Ci/mmole) yielding an antisense RNA complementary to the 3′ end of B7-2 (position 1044-1391). The probe was gel-purified after treatment with DNase I to remove DNA template. Ribonuclease protection assays were carried out using an RPA II™ kit (Ambion) according to the manufacturer's directions. Total RNA (5 μg) was hybridized overnight, at 42° C., with 10^5 cpm of the B7-2 probe or a control beta-actin probe. The hybridization reaction was then treated, at 37° C. for 30 minutes, with 0.4 units of RNase A and 2 units of RNase T1. Protected RNA was precipitated, resuspended in 10 μL of gel loading buffer and electrophoresed on a 6% acrylamide gel with 50% w/v urea at 20 W. The gel was then exposed and the lanes quantitated using a PhosphorImager (Molecular Dynamics, Sunnyvale, Calif.) essentially according to the manufacturer's instructions.
The oligonucleotides were screened as described in Example 4 except that the concentration of oligonucleotide was varied as shown in Table 13. Mismatch control oligonucleotides were included.

Human B7-2 mRNA = Human B7-2 mRNA expression in electroporated THP-1 cells induced with LPS and dibutyryl cAMP; assay type: cell-based; conditions: THP-1 cells electroporated at 10 micromolar oligonucleotide, LPS and dibutyryl cAMP (500 μM) 16 hours
From the text: The human promonocytic leukaemia cell line, THP-1 (American Type Culture Collection, Manassas, Va.) was maintained in RPMI 1640 growth media supplemented with 10% fetal calf serum (FCS; Life Technologies, Rockville, Md.). A total of 1×10^7 cells were electroporated at an oligonucleotide concentration of 10 micromolar in 2 mm cuvettes, using an Electrocell Manipulator 600 instrument (Biotechnologies and Experimental Research, Inc.) employing 200 V, 1000 μF. Electroporated cells were then transferred to petri dishes and allowed to recover for 16 hrs Cells were then induced with LPS and dibutyryl cAMP (500 μM) for 16 hours. RNA was isolated and processed as described in previous examples.

| Substance | % Control Protein (human B7-2) [%] | % Control RNA Expression (hB7-2 mRNA) [%] | further results |
| --- | --- | --- | --- |
| ISIS 11539: fully 2′MO # 10996; SEQ ID NO: 90 (antisense GCGAGCTCCCCGTAC; all 2'-O-methyl, all phosphorothioate, T or U not given here) | – | – | B7-2 expression relative to untreated cells (human B7-2): not active at all |
| ISIS 10994: # 10373 deletion derivative, 13-mer, 0015-0027; SEQ ID NO: 88 (antisense dG*dA*dG*dC*dT*dC*dC*dC*dC*dG*dT*dA*dC) | – | – | activity in the B7-2 protein expression assay (human B7-2): little or no activity |
| 10372 (antisense dC*dC*dA*dT*dT*dA*dA*dG*dC*dT*dG*dG*dG*dC*dT*dT*dG*dG*dC*dC) [compound 10372] | 101.7 | 82.5 | – |
| 113134 (antisense eG*e[5mC]*eA*eT*eA*dA*dG*d[5mC]*dA*d[5mC]*dA*dG*d[5mC]*dA*dG*e[5mC]*eA*eT*eT*e[5mC]) [compound 113134] | – | – | % mRNA EXPRESSION (Human B7-2 mRNA): 27%; % mRNA INHIBITION (Human B7-2 mRNA): 73% |
| ISIS 10991: # 10373 deletion derivative, 10-mer, 0015-0024; SEQ ID NO: 85 (antisense dC*dT*dC*dC*dC*dC*dG*dT*dA*dC) | – | – | activity in the B7-2 protein expression assay (human B7-2): little or no activity |
| 113140 (antisense eG*e[5mC]*eT*eT*eT*dG*dG*dT*dT*dT*dT*dG*dA*dG*dA*eG*eT*eT*eT*eG) [compound 113140] | – | – | % mRNA EXPRESSION (Human B7-2 mRNA): 214% |
| ISIS 10995: # 10373 deletion derivative, 14-mer, 0015-0028; SEQ ID NO: 89 (antisense dC*dG*dA*dG*dC*dT*dC*dC*dC*dC*dG*dT*dA*dC) | – | – | activity in the B7-2 protein expression assay (human B7-2): little or no activity |
| 10369 (antisense dT*dG*dG*dT*dA*dT*dG*dG*dG*dC*dT*dT*dT*dA*dC*dT*dC*dT*dT*dT) [compound 10369] | 71.3 | 81.5 | – |
| 113150 (antisense eA*e[5mC]*eA*eA*eG*d[5mC]*dT*dG*dA*dT*dG*dG*dA*dA*dA*e[5mC]*eG*eT*e[5mC]*eG) [compound 113150] | – | – | % mRNA EXPRESSION (Human B7-2 mRNA): 19%; % mRNA INHIBITION (Human B7-2 mRNA): 81% |
| 113149 (antisense eT*e[5mC]*eA*eT*e[5mC]*dT*dT*d[5mC]*dT*dT*dA*dG*dG*dT*dT*e[5mC]*eT*eG*eG*eG) [compound 113149] | – | – | % mRNA EXPRESSION (Human B7-2 mRNA): 29%; % mRNA INHIBITION (Human B7-2 mRNA): 71% |
| 113136 (antisense eA*eA*eA*eT*eG*d[5mC]*d[5mC]*dT*dG*dT*d[5mC]*d[5mC]*dA*d[5mC]*dT*eG*eT*eA*eG*e[5mC]) [compound 113136] | – | – | % mRNA EXPRESSION (Human B7-2 mRNA): 81%; % mRNA INHIBITION (Human B7-2 mRNA): 19% |
| 10367 (antisense dG*dC*dA*dC*dA*dG*dC*dA*dG*dC*dA*dT*dT*dC*dC*dC*dA*dA*dG*dG) [compound 10367] | 71.3 | 52.5 | – |
| ISIS 10716: scrambled # 9136; SEQ ID NO: 77 (antisense dA*dA*dA*dG*dT*dT*dA*dC*dA*dA*dC*dA*dT*dT*dA*dT*dA*dT*dC*dT) [reference compound] | – | – | inhibitory activity on B7-2 cell surface expression (human B7-2): no inhibitory activity |
| 9138 (antisense dC*dC*dG*dT*dA*dC*dC*dT*dC*dC*dT*dA*dA*dG*dG*dC*dT*dC*dC*dT) [compound 9138] | 86.4 | 65.9 | – |
| ISIS 10992: # 10373 deletion derivative, 11-mer, 0015-0025; SEQ ID NO: 86 (antisense dG*dC*dT*dC*dC*dC*dC*dG*dT*dA*dC) | – | – | activity in the B7-2 protein expression assay (human B7-2): little or no activity |
| 10368 (antisense dT*dT*dG*dC*dA*dA*dA*dT*dT*dG*dG*dC*dA*dT*dG*dG*dC*dA*dG*dG) [compound 10368] | 81.0 | 84.5 | – |
| 9134 (antisense dC*dA*dT*dA*dA*dG*dG*dT*dG*dT*dG*dC*dT*dC*dT*dG*dA*dA*dG*dT*dG) [compound 9134] | 88.8 | 94.5 | – |
| 10370 (antisense dA*dA*dA*dA*dG*dG*dT*dT*dG*dC*dC*dC*dA*dG*dG*dA*dA*dC*dG*dG) [compound 10370] | 84.3 | 83.2 | – |
| 9135 (antisense dT*dT*dA*dC*dT*dC*dA*dT*dG*dG*dT*dA*dA*dT*dG*dT*dC*dT*dT*dT) [compound 9135] | 98.2 | 83.4 | – |
| 5′-GCG-AGC-TCC-CCG-TAC (antisense GCGAGCTCCCCGTAC; listed as DNA, chemistry not given here) [ISIS 10996, 15-mer derived from ISIS 10373, 0015-0029; 5′-UTR] | – | – | B7-2 expression relative to untreated cells (human B7-2): about 50%; activity in the B7-2 protein expression assay (human B7-2): as (or more) active |
| 9136 (antisense dA*dT*dT*dA*dA*dA*dA*dA*dC*dA*dT*dG*dT*dA*dT*dC*dA*dC*dT*dT) [compound 9136] | 97.1 | 103.1 | – |
| 9139 (antisense dC*dC*dC*dA*dT*dA*dG*dT*dG*dC*dT*dG*dT*dC*dA*dC*dA*dA*dA*dT) [compound 9139] | 47.9 | 32.6 | – |
| 10373 (antisense dT*dG*dC*dG*dA*dG*dC*dT*dC*dC*dC*dC*dG*dT*dA*dC*dC*dT*dC*dC) [compound 10373] | 43.5 | 32.7 | % mRNA EXPRESSION (hB7-2 mRNA; human B7-2 mRNA, Table 12): 24%; % mRNA INHIBITION (hB7-2 mRNA; human B7-2 mRNA, Table 12): 76% |
| 9137 (antisense dG*dG*dA*dA*dC*dA*dC*dA*dG*dA*dA*dG*dC*dA*dA*dG*dG*dT*dG*dG*dT) [compound 9137] | 80.5 | 78.1 | – |
| 9133 (antisense dT*dT*dC*dC*dA*dG*dG*dT*dC*dA*dT*dG*dA*dG*dC*dC*dA*dT*dT*dA) [compound 9133] | 70.2 | 46.0 | – |
| ISIS 10993: # 10373 deletion derivative, 12-mer, 0015-0026; SEQ ID NO: 87 (antisense dA*dG*dC*dT*dC*dC*dC*dC*dG*dT*dA*dC) | – | – | activity in the B7-2 protein expression assay (human B7-2): little or no activity |
| 10371 (antisense dG*dG*dG*dA*dG*dT*dC*dC*dT*dG*dG*dA*dG*dC*dC*dC*dC*dC*dT*dT) [compound 10371] | 97.3 | 92.9 | – |
| ISIS 10715: scrambled control of # 9133; SEQ ID NO: 76 (antisense dG*dA*dT*dT*dT*dA*dA*dC*dA*dT*dT*dT*dG*dG*dC*dG*dC*dC*dC*dA) [reference compound] | – | – | inhibitory activity on B7-2 cell surface expression (human B7-2): no inhibitory activity |
